Patent US20230203029A1 (priority 2020, published 2023)

Assays:
Type in all cases: cell-based
[1] = target: T1, Ba/F3 Pro B-cell line expressing BCR-human AXL kinase domain fusion protein (Homo sapiens, UniProt P30530); assay: Assay 5 Ba/F3 cell survival assay, BCR-Axl; settings: read-out: BCR-Axl Ba/F3 IC50, 48 h, CellTiter-Glo
T1 construct: P11274 (Breakpoint cluster region protein)
T1 sequence (P30530 536-807 limits assumed): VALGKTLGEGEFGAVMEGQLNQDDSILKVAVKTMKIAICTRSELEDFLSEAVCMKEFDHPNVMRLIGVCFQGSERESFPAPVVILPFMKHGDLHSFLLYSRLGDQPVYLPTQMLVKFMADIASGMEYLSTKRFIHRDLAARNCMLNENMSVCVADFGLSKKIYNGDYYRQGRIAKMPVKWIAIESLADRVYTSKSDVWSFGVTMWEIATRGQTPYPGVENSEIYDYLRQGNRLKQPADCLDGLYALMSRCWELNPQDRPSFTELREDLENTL
Method in brief: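 Ba/F3 cells dependent on BCR-AXL or TEL-MERTK fusion kinase (IL3-free; IL3 only for control lines) treated with compound 48 h at 37 °C, 0.25% DMSO. Viability by CellTiter-Glo luminescence; IC50 for half-maximal inhibition of survival from 4-parameter variable-slope fit.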

[2] = target: T2, recombinant human AXL expressed in live cells (HEK, AXL-Nanoluc fusion vector) (Homo sapiens, UniProt P30530); assay: Assay 3 AXL cellular target engagement (NanoBRET TE) assay
T2 construct: host or cells: HEK
T2 sequence (P30530 26-894): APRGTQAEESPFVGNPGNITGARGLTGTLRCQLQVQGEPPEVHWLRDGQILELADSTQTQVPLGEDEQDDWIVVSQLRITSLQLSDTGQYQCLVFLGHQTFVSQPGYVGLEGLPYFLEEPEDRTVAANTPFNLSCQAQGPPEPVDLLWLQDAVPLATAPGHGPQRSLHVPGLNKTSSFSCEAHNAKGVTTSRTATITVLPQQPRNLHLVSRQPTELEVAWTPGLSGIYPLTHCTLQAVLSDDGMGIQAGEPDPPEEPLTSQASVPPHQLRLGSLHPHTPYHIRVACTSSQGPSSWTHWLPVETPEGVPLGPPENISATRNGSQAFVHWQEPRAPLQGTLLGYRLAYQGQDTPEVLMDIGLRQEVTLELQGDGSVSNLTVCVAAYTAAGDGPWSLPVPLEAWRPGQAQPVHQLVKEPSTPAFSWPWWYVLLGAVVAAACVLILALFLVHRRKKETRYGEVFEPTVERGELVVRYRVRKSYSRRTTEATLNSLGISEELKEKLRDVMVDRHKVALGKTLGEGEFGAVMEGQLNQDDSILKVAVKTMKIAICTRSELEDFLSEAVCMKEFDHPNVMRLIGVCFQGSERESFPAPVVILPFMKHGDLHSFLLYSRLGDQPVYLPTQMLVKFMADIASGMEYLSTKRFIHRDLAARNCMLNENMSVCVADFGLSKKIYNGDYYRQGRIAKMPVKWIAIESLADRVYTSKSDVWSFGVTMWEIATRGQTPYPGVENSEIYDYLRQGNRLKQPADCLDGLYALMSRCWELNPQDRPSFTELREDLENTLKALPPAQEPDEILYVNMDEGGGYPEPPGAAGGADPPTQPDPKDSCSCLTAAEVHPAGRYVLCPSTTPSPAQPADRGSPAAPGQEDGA
Description: Assay 3—AXL Cellular Target Engagement (TE) Assay
Compound affinities for recombinant human AXL expressed in live cells were assessed via the Promega NanoBRET TE assay technology. Human Embryonic Kidney (HEK) cells were transiently transfected with the AXL-Nanoluc fusion vector (Promega Cat NV1071) using Fugene HD reagent (Promega E2311). […] Incubations were conducted for 2 h at 37° C., after which 20 μl NanoGlo substrate/inhibitor mix (Promega N2161) was added to each well for 2-3 min. The plate was then read on a BMG Pherastar FSX using a NanoBRET filter to record donor emission at 450 nm and acceptor fluorophore emission at 610 nm. From this the BRET ratio (acceptor 610 nm/donor 450 nm) for each data point was calculated.

[3] = tested on: BCR-Ba/F3 control cell line; assay: Assay 5 Ba/F3 cell survival assay, BCR-none control line; settings: Mus musculus, BaF3
Description: Assay 5—Ba/F3 Cell Survival Assays.
The inhibitory potencies of compounds were assessed in a Ba/F3 cell survival assay, using the Ba/F3 Pro B-cell line, recombinantly expressing a BCR-human AXL kinase domain fusion protein (pACD320/AXL, Advanced Cellular Dynamics Inc), TEL-human MERTK fusion domain (pACD1000/MERTK, Advanced Cellular Dynamics Inc), TEL-human Tyro3 fusion domain (pACD1000/TYRO3, Advanced Cellular Dynamics Inc), or control TEL-none (ACD320, Advanced Cellular Dynamics Inc) BRC-none constructs (ACD1000, Advanced Cellular Dynamics Inc). 10 ng/mL recombinant murine IL3 (R&D, 403-ML-010) was included in the media when propagating negative control TEL-none or BCR-none lines only. Cells were maintained in RMPI 1640 (Corning 15-040-CV) culture media containing 10% heat inactivated semi-synthetic FBS (RMBIO FGR-BBT), 2 mM L-Glutamine (Sigma, G7513), 100 IU/mL Penicillin-[…] Streptomycin (Sigma, P4333), and 500 ng/mL Puromycin (Sigma, P8833). Experiments were performed in 50 μl growth media, including the test compounds of interest, and dispensing 5000 cells/well in logarithmic-phase growth into a 384 well white Optiplate (Perkin Elmer 6007299). […] The final assay DMSO concentration was 0.25%. […]
The plate was then equilibrated for 5 min at room temperature and luminescence read on a BMG Pherastar FSX using the LUM plus optic module. […]

Row | Compound | IC50 [2] | IC50 [1] | IC50 [3]
1 | CC(C)n1cc(C(=O)Nc2ccc(Oc3ccnc4cnc(N5CCNCC5)cc34)cc2)c(=O)c(-c2ccc(F)cc2)c1 [Example 13, 5-(4-Fluorophenyl)-1-isopropyl-4-oxo-N-[4-[(6-piperazin-1-yl-1,7-naphthyridin-4-yl)oxy]phenyl]pyridine-3-carboxamide] | 7.1 nM | 13 nM | 
2 | O=C(Nc1ccc(Oc2ccnc3cnc(N4CCN(C5COC5)CC4)cc23)cn1)c1ccnn(-c2ccc(F)cc2)c1=O [Example 20, 2-(4-fluorophenyl)-N-[5-[[6-[4-(oxetan-3-yl)piperazin-1-yl]-1,7-naphthyridin-4-yl]oxy]-2-pyridyl]-3-oxo-pyridazine-4-carboxamide] |  | 16 nM | 830 nM
3 | C[C@H](CO)n1cc(C(=O)Nc2ccc(Oc3ccnc4cnc(C(=O)NC5CCN(C)CC5)cc34)cc2)c(=O)n(-c2ccc(F)cc2)c1=O [Example 14, 4-[4-[[3-(4-Fluorophenyl)-2,4-dioxo-1-[(1R)-2-hydroxy-1-methyl-ethyl]pyrimidine-5-carbonyl]amino]phenoxy]-N-(1-methyl-4-piperidyl)-1,7-naphthyridine-6-carboxamide] | 31 nM | 7 nM | 
4 | CN1CCC(NC(=O)c2cc3c(Oc4ccc(NC(=O)c5cn(C)cc(-c6ccc(F)cc6)c5=O)cc4)ccnc3cn2)CC1 [Example 37, 4-[4-[[5-(4-fluorophenyl)-1-methyl-4-oxo-pyridine-3-carbonyl]amino]phenoxy]-N-(1-methyl-4-piperidyl)-1,7-naphthyridine-6-carboxamide] | 33.5 nM | 17 nM | 
5 | CN1CCC(NC(=O)c2cc3c(Oc4ccc(NC(=O)c5cccn(-c6ccccc6)c5=O)cc4F)ccnc3cn2)CC1 [Example 33, 4-[2-fluoro-4-[(2-oxo-1-phenyl-pyridine-3-carbonyl)amino]phenoxy]-N-(1-methyl-4-piperidyl)-1,7-naphthyridine-6-carboxamide] | 63.8 nM | 30 nM | 
6 | O=C(Nc1ccc(Oc2ccnc3cnc(N4CCNCC4)cc23)cc1)c1cn(C2CC2)c(=O)n(-c2ccc(F)cc2)c1=O [Example 36, 1-cyclopropyl-3-(4-fluorophenyl)-2,4-dioxo-N-[4-[(6-piperazin-1-yl-1,7-naphthyridin-4-yl)oxy]phenyl]pyrimidine-5-carboxamide] | 25.7 nM | 34 nM | 
7 | CN1CCC(NC(=O)c2cc3c(Oc4ccc(NC(=O)c5cn(C6CC6)c(=O)n(-c6ccc(F)cc6)c5=O)cc4)ccnc3cn2)CC1 [Example 15, 4-[4-[[1-Cyclopropyl-3-(4-fluorophenyl)-2,4-dioxo-pyrimidine-5-carbonyl]amino]phenoxy]-N-(1-methyl-4-piperidyl)-1,7-naphthyridine-6-carboxamide] | 33.2 nM | 14 nM | 
8 | CN1CCC(NC(=O)c2cc3c(Nc4ccc(NC(=O)c5cccn(-c6ccccc6)c5=O)cc4)ccnc3cn2)CC1 [Example 3, N-(1-methyl-4-piperidyl)-4-[4-[(2-oxo-1-phenyl-pyridine-3-carbonyl)amino]anilino]-1,7-naphthyridine-6-carboxamide] | 7 nM | 45 nM | 
9 | Cc1cc(NC(=O)c2cccn(-c3ccccc3)c2=O)ccc1Oc1ccnc2cnc(N3CCNCC3)cc12 [Example 30, N-[3-methyl-4-[(6-piperazin-1-yl-1,7-naphthyridin-4-yl)oxy]phenyl]-2-oxo-1-phenyl-pyridine-3-carboxamide] | 339 nM | 470 nM | 

Further lines, with some results ahead:

Row | IC50 [2] | Compound | IC50 [1] | IC50 [3]
10 | 28.8 nM | O=C(Nc1ccc(Oc2ccnc3cnc(N4CCNCC4)cc23)cc1)c1cccn(-c2ccc(F)cc2)c1=O [Example 12.2, 1-(4-fluorophenyl)-2-oxo-N-[4-[(6-piperazin-1-yl-1,7-naphthyridin-4-yl)oxy]phenyl]pyridine-3-carboxamide] | 48 nM | 
11 | 12.8 nM | CC(C)n1cc(C(=O)Nc2ccc(Oc3ccnc4cnc(N5CCNCC5)cc34)cc2)c(=O)n(-c2ccc(F)cn2)c1=O [Example 12.4, 3-(5-fluoro-2-pyridyl)-1-isopropyl-2,4-dioxo-N-[4-[(6-piperazin-1-yl-1,7-naphthyridin-4-yl)oxy]phenyl]pyrimidine-5-carboxamide] | 12 nM | 
12 | 80.8 nM | CC(C)n1cc(C(=O)Nc2ccc(Oc3ccnc4cnc(N5CCNCC5)cc34)cc2)c(=O)n(-c2ccccn2)c1=O [Example 12.3, 1-isopropyl-2,4-dioxo-N-[4-[(6-piperazin-1-yl-1,7-naphthyridin-4-yl)oxy]phenyl]-3-(2-pyridyl)pyrimidine-5-carboxamide] | 64 nM | 
13 | 15.9 nM | Cn1cc(C(=O)Nc2ccc(Oc3ccnc4cnc(N5CCNCC5)cc34)cc2)c(=O)c(-c2ccc(F)cc2)c1 [Example 13.1, 5-(4-fluorophenyl)-1-methyl-4-oxo-N-[4-[(6-piperazin-1-yl-1,7-naphthyridin-4-yl)oxy]phenyl]pyridine-3-carboxamide] | 22 nM | 
14 | 14 nM | CC(C)n1cc(C(=O)Nc2ccc(Oc3ccnc4cnc(C(=O)NC5CCN(C)CC5)cc34)cn2)c(=O)n(-c2ccc(F)cc2)c1=O [Example 27.5, 4-[[6-[[3-(4-fluorophenyl)-1-isopropyl-2,4-dioxo-pyrimidine-5-carbonyl]amino]-3-pyridyl]oxy]-N-(1-methyl-4-piperidyl)-1,7-naphthyridine-6-carboxamide] | 2 nM | 
15 | 6.1 nM | CC(C)n1cc(C(=O)Nc2ccc(Oc3ccnc4cnc(C(=O)NC5CCN(C)CC5)cc34)cc2)c(=O)c(-c2ccc(F)cc2)c1 [Example 37.1, 4-[4-[[5-(4-fluorophenyl)-1-isopropyl-4-oxo-pyridine-3-carbonyl]amino]phenoxy]-N-(1-methyl-4-piperidyl)-1,7-naphthyridine-6-carboxamide] | 2 nM | 
